Data set [1] has as its system FOF1 from M. smegmatis (MsFOF1). More on the design: method as in PMID 33299175. The following applies: cited from earlier work.
For data set [2], the target named is T1, FOF1-ATPase of WT E. coli membranes (Escherichia coli, UniProt P68699).
T1 construct: To express haploid levels of EcFOF1 containing WT-ε or ε88-stop; expressed in transfected cells; host or cells: E. coli strain XH1 (chromosomal atpC deletion) carrying pMBε1; inverted membrane vesicles
Description: biochemical. The conditions noted are these: for ATPase activity during the last 3 min of assays: 0.1 mM DCCD alone (trace 1); for Ki: read-out: Ki (early inhibition). The data set is classed as biochemical. How it is done:
ATP hydrolysis is enzyme-coupled to conversion of NADH to NAD^+, which results in decreased light absorbance; thus, a larger rate of ATP hydrolysis is indicated by a steeper downward slope. The system also rapidly regenerates ATP, minimizing the concentration of product ADP during the assay. Unless noted, assays were preincubated to establish a steady state hydrolysis rate (see “Methods”) before the ‘zero’ point of measurements.
(§1) Plasmid pXH302S, which encodes the WT atpC gene and expresses near haploid levels of the ε subunit, was subjected to fusion PCR mutagenesis to construct plasmid pMBε1, with an N-terminal affinity tag ([…]) added prior to the initial Met residue. To express the ε88-stop subunit, an AfeI-ScaI restriction fragment of WT pMBε1 was replaced by the analogous fragment from pH6ε88-stop[46]. To express haploid levels of EcFOF1 containing WT-ε or ε88-stop, the appropriate version of pMBε1 was transformed into E. coli strain XH1, which has a chromosomal deletion of the atpC gene for ε[54]. For these transformed strains, cultures were grown and inverted membrane vesicles (IMV) were prepared according to [55]. WT ε, with the same N-terminal His6-tag, was over-expressed from pH6ε and purified as described.
ATP hydrolysis by membrane vesicles was assayed spectrophotometrically[57] at 30 °C using an open-chamber, diode array spectrophotometer (Hewlett Packard 8453 UV–Vis) as described in[29]. The assay medium (1 ml per assay) contained 20 mM Mops/Tris, pH 8.0, 0.2 mM EDTA, 10 mM CH3COOK, 1 mM ATP, 3.2 mM Mg(CH3COO)2, 1 mM phosphoenolpyruvate, at least 0.3 mM NADH, 0.1 mg/ml pyruvate kinase, 0.1 mg/ml lactate dehydrogenase, 5 mM KCN, and 5 μM carbonyl cyanide 4-(trifluoromethoxy)-phenylhydrazone. […] To avoid interference of this increase with the changes of ATPase activity induced by venturicidins, unless indicated otherwise, measurement of ATPase activities were started 60 min after addition of membranes to the complete assay medium. […] To keep absorbance between 1.5 and 2 units after the 60-min preincubation, up to 0.2 mM additional NADH was added to the assay medium. In figures displaying activity traces, some traces are shifted vertically for visual clarity.

Data set [3] deals with T2, PaFOF1 in membranes from P. aeruginosa strain PAO1 (Pseudomonas aeruginosa, UniProt Q9HT15).
T2 construct: endogenous in cells; host or cells: P. aeruginosa strain PAO1, inverted membrane vesicles
In words: ATP hydrolysis by P. aeruginosa PAO1 membranes, enzyme-coupled spectrophotometric assay. Format: biochemical. On the procedure: P. aeruginosa strain PAO1 was grown in LB medium at 37 °C as described. For preparation of IMV, final cultures used 1 L of LB per 2L baffled flask and were inoculated from an overnight culture at an initial OD600 ~ 0.025. Cultures were shaken at 250 rpm and monitored until they reached mid- to late-logarithmic growth phase (OD600, 1–1.4). Cultures were chilled and subsequent steps for cell lysis and isolation of IMV were done at 4 °C. Cells were sedimented by centrifugation (3,700 × g, 30 min). Cells from 1 to 2 L of culture (~ 2–3 g wet cells/L) were resuspended in 25–40 ml of STEM buffer (TEM buffer plus sucrose[55]), transferred to a 50 ml Oak Ridge tube, sedimented again (11,617 × g, 10 min), resuspended in 20–40 ml of STEM and frozen at -80 °C. Thawed cells were lysed by two sequential passages through an SLM-Aminco French pressure cell at ~ 16,000 psi, essentially as described for E. coli[55]; the pressure cell was enclosed in a clear biohazard bag (MiniGrip, IP2024B3T) during use to contain any aerosols formed. Unlysed cells and cell wall debris were removed by centrifugation (50 ml Oak Ridge tubes, 16,743 × g, 25 min): the supernate was diluted with MTGM7.5 buffer (50 mM MOPS-TRIS, 10%(v/v) glycerol, 5 mM Mg(CH3COO)2, pH 7.5) and centrifugation was repeated at least twice, recovering the supernate each time. The final supernatant lysate was stored at -80 °C. To isolate IMV, the cleared lysate was thawed quickly and diluted with MTGM7.5 as needed to fill 1 or 2 polycarbonate tubes for use in a Beckman Ti70 rotor. The IMV (membranes) were sedimented by ultracentrifugation (250,000 × g max) for 1 h, the membranes were resuspended in MTGM7.5 buffer to fill one Ti70 tube and ultracentrifugation was repeated for 45 min. The membranes were resuspended in a small volume of MTGM7.5 buffer (typically ≥ 10 mg membrane protein/ml) and homogenized manually (Potter–Elvehjem type). Small aliquots of the final membrane sample were quick-frozen in liquid nitrogen and stored at − 80 °C.
(§2) ATP hydrolysis by membrane vesicles was assayed spectrophotometrically[57] at 30 °C using an open-chamber, diode array spectrophotometer (Hewlett Packard 8453 UV–Vis) as described in[29]. The assay medium (1 ml per assay) contained 20 mM Mops/Tris, pH 8.0, 0.2 mM EDTA, 10 mM CH3COOK, 1 mM ATP, 3.2 mM Mg(CH3COO)2, 1 mM phosphoenolpyruvate, at least 0.3 mM NADH, 0.1 mg/ml pyruvate kinase, 0.1 mg/ml lactate dehydrogenase, 5 mM KCN, and 5 μM carbonyl cyanide 4-(trifluoromethoxy)-phenylhydrazone. As noted before, the rate of ATP hydrolysis by membranes increases to a small degree during assays. This is due, at least in part, to dissociation of a small fraction of EcF1 and/or ε from the membranes, since the increase is inhibited by added ε (e.g., Fig. 5). To avoid interference of this increase with the changes of ATPase activity induced by venturicidins, unless indicated otherwise, measurement of ATPase activities were started 60 min after addition of membranes to the complete assay medium. This minimizes further increases in ATPase rate during control assays to < 15%. To keep absorbance between 1.5 and 2 units after the 60-min preincubation, up to 0.2 mM additional NADH was added to the assay medium. In figures displaying activity traces, some traces are shifted vertically for visual clarity.

For a further data set, the system named is mitoFOF1. Details: method as in PMID 124668. The conditions noted are these: cited from earlier work.
The target of data set [4] is T3, E. coli membranes with FOF1 lacking the ε subunit's CTD (ε88-stop) (Escherichia coli, UniProt P68699).
T3 construct: To express haploid levels of EcFOF1 containing WT-ε or ε88-stop; expressed in transfected cells; host or cells: E. coli strain XH1 (chromosomal atpC deletion) carrying the ε88-stop version of pMBε1; inverted membrane vesicles
In words: ATP hydrolysis by ε88-stop E. coli membranes, enzyme-coupled spectrophotometric assay. The data set is classed as biochemical.
Text: We next investigated whether the ε-inhibited state of EcFOF1 also impacts interactions of ventA with the enzyme. The N-terminal domain (NTD) of ε is required for FOF1 assembly and functional coupling of F1 to FO in eukaryotic and bacterial species; the C-terminal domain (CTD) of ε can auto-inhibit FOF1 and isolated F1 from some bacteria and from chloroplasts, but the mitochondrial homolog (δ) is not inhibitory[39],[40]. Thus we measured the effects of ventA on ATPase activity of E. coli membranes expressing ε88-stop, which lacks the autoinhibitory εCTD (Fig. 3). From Table 1 (100% ATPase values), it is clear that selenite activates membrane ATPase more (fourfold) for ε88-stop than for WT (2.8-fold). This is because, without the inhibitory εCTD, more enzyme complexes shift to the MgADP-inhibited state, which can be activated by selenite. […] In contrast, early inhibition of ATPase by ventA has similar Ki values for WT and ε88-stop membranes in the absence (0.7 vs 0.5 μM) or in the presence of selenite (0.23 vs 0.09 μM).
as §1, §2

In the next data set the test system is S. aureus. Details: method as in PMID 28874470. The conditions noted are these: cited from earlier work.
For another data set, the system named is P. aeruginosa. Details: method as in PMID 6406266. The conditions noted are these: cited from earlier work.
The subject of the next data set is E. coli membrane ATPase. The conditions noted are these: read-out: half-maximal inhibitory concentration of venturicidin; obtained from earlier data; more divergent assay conditions; cited from earlier work.
A further data set addresses F1. Details: method as in PMID 23400782. The conditions noted are these: read-out: KD of ε dissociation from F1; cited from earlier work.
Setting [5] is: WT, 38.5 mM selenite (Fig. S1 panel B).

Results on nine compounds are retold here after article PMC8249445, “Complex effects of macrolide venturicidins on bacterial F-ATPases likely contribute to their action as antibiotic adjuvants” (Scientific Reports, 2021).

Read-outs that look alike come from different tables or passages of the source.

For the compound `COc1nc2ccc(Br)cc2cc1[C@@H](c1ccccc1)[C@@](O)(CCN(C)C)c1cccc2ccccc12` [BDQ, bedaquiline], in data set [1] (micromolar BDQ), the “Effect of micromolar BDQ on ATPase activity” value is given as “most activity was restored”. Further, in [1] (nanomolar BDQ), the “Inhibition of ATPase” value is given as ~ 80%.
As usually defined, the inhibition is how much of the control response was suppressed. As to `C(=NC1CCCCC1)=NC1CCCCC1` [DCCD, N,N′-dicyclohexylcarbodiimide], the “ATPase activity during the last 3 min of assays” value in [2] (38.5 mM selenite) is 0.85 U/mg; in [2] (no selenite) it was 0.20 (± 0.02) U/mg. For the same compound, the inhibition at 100 µM in [2] (read-out: Inhibition of ATPase activity) stood at 73%.
With `[N-]=[N+]=[N-]` [azide], the “Inhibition of ATPase activity” value was 80–90% in [3] (excess azide) and ~ 50% in data set [2] (6 µM azide in the assay). Further, the “100% ATPase (specific activity just before addition of ventA)” value in [2] (WT + 6 μM azide) is 0.42 (± 0.02) U/mg.
As to `CC[C@H]1/C=C/C=C/C[C@@H](C)[C@H](O)[C@@](C)(O)C(=O)[C@@H](C)[C@H](O)[C@@H](C)C(=O)[C@@H](C)[C@H](O)[C@@H](C)/C=C/C(=O)O[C@@H]2[C@H](C)[C@H](CC1)O[C@]1(CC[C@H](C)[C@H](C[C@@H](C)O)O1)[C@H]2C` [oligomycin], the “Effect on ATPase activity of membrane and detergent-solubilized mitoFOF1” value with mitoFOF1 was “inhibited ATPase activity of both forms”.
`O=[Se](O)O` [selenite]: the “Activation of membrane ATPase” value in data set [4] (selenite, ε88-stop membranes) was “fourfold”; in data set [3] (selenite), “~ fourfold”. Moreover, the “100% ATPase (specific activity just before addition of ventA)” value in [4] (ε88stop + 38.5 mM selenite) was 3.4 (± 0.5) U/mg; in data set [2] (WT + 38.5 mM selenite), 2.3 (± 0.2) U/mg. For the same compound, the “Stimulation of ATPase activity” value in [2] (optimal selenite (38.5 mM), WT membranes) came to 2.8 fold.
As usually defined, the Ki is a measure of affinity in units of concentration, obtained from inhibition or displacement. Regarding `CCC(=O)C(C)C(O)C(C)CC(C)C1OC(=O)CC2(O)CC=C(C)C(O2)C(C)=CCCCC(OC2CC(O)C(O)C(C)O2)C=CC(C)CC1C` (stereo not shown) [ventB, venturicidin B], the “Reduction of Ki by selenite” value in data set [2] (WT) is listed as 2.3 fold. Further, the “y0 (ATPase at saturating venturicidin)” value in [2] (setting [5]) was 28% (±7). In addition, the “y1 (venturicidin-sensitive ATPase, best fit of early rates)” value in [2] (setting [5]) was 73% (±6); in [2] (WT, absence of selenite (Fig. S1 panel A), y0 fixed as 0), 136% (±7). For the same compound, the “Ki for inhibition of early rate relative to respective Ki of ventA” value in [2] (WT, with or without selenite) was “≥ tenfold”. The Ki in data set [2] (setting [5]) amounted to 4 µM; in [2] (WT, absence of selenite (Fig. S1 panel A)), 9 µM.
Turning to Oligomycin A, the “Adjuvant activity for polymyxin B” value with S. aureus is recorded as “potent adjuvant”.
Regarding venturicidin, the “Decrease of cellular ATP” value in the data set with P. aeruginosa (anaerobic fermentation of L-arginine) is “~ tenfold”. The “Time to eliminate Δψ and flagellar motility” value in the data set on P. aeruginosa (anaerobic) is not above 3.5 min. Further, the “Reduction of cellular ATP” value with P. aeruginosa (during respiration) is listed as “~ fivefold”. Besides, the IC50 in the data set with E. coli membrane ATPase was approximately 7 µM.
The Kd is the free concentration of one partner at which half of the binding sites on the other are occupied at equilibrium, for simple one-to-one binding. With “ε: purified WT ε subunit of E. coli FOF1 with N-terminal His6-tag, added exogenously”, the Kd at F1 was less than 0.001 µM. Besides, the “Late rate (last 3 min of assay)” value in data set [2] (67 nM ε added after 9.5 μM ventA, 38.5 mM selenite (Fig. 5A #4)) is 0.28 U/mg; in data set [2] (67 nM ε, 38.5 mM selenite (Fig. 5A #2)) it was 1.4 U/mg. Further, the “Immediate inhibition of ATPase activity” value in data set [2] (excess ε (67 nM), without ventA, selenite present) is reported as ~ 30%. Further, in data set [2] (excess ε added after 9.5 μM ventA, selenite present (Fig. 5A trace 4)), the “Immediate inhibition of ventA-recovered ATPase activity” value is recorded as ~ 90%.
